Source: paper PMC8470483, “Bidirectional Influences of Cranberry on the Pharmacokinetics and Pharmacodynamics of Warfarin with Mechanism Elucidation” (Nutrients, 2021)
Read-outs that look alike come from different tables or passages of the source. Marks after values point to notes of the source that are not given here.

Key:
[1] = Measurement of INR in rats (anticoagulation effect of warfarin); format: in vivo; details: for INR value at 24 h: mean ± S.E.
Protocol: In the pharmacodynamic study, the rats were randomly divided into four groups (n = 8 in each group). In the first experiment, two groups of rats were orally administered (±) warfarin (0.2 mg/kg) alone and with CJ (5 g/kg) given at 0.5 h prior to (±) warfarin dosing, and blood samples were drawn at 6, 10 and 24 h after (±) warfarin dosing. In the second experiment, two groups of rats were orally administered (±) warfarin (0.2 mg/kg) with and without CJ (5 g/kg), given at 10 h after (±) warfarin dosing, and blood samples were drawn at 10, 24, and 48 h after (±) warfarin dosing.
Ten µL of blood was collected and the INR was measured using CoaguChek® XS System (Roche Diagnostics GmbH, Mannheim, Germany). All procedures followed the manufacturer’s protocol.

CYP2C9 = CYP2C9 (Homo sapiens, UniProt P11712); assay: Vivid CYP450 screening kit, CYP2C9 activity; details: positive control, 10 μM, in blank serum
CYP2C9, sequence (P11712 whole entry): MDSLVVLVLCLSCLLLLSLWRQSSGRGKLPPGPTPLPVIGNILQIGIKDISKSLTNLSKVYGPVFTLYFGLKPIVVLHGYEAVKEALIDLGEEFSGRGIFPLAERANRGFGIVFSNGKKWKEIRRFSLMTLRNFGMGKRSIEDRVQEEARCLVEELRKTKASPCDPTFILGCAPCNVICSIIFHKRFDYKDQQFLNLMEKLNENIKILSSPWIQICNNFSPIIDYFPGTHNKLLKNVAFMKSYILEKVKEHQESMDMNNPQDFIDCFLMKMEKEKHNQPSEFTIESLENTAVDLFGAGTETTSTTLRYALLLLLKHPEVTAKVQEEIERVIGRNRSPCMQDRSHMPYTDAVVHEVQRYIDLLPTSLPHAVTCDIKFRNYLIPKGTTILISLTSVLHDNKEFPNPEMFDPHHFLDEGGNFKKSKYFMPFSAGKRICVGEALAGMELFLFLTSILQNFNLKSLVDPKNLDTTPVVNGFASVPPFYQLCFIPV
Protocol: Vivid® CYP450 screening kits were used to evaluate the effects of CMs on the activities of CYP1A2, CYP2C9, and CYP3A4, individually [26, 27], and all the procedures were performed based on the standard protocols.

[2] = rats; for Change of AUC0–10 vs warfarin alone / Change of AUC0–t vs warfarin alone / Change of Cmax vs warfarin alone: CJ 5.0 g/kg 0.5 h before warfarin; for Effect of CJ on AUC0–t / Effect of CJ on Cmax: CJ given at 10 h after (±) warfarin; for Decrease of AUC0-t / Decrease of AUC0–10 / Decrease of Cmax: CJ ingestion at 0.5 h before (±) warfarin, vs warfarin alone; for AUC0–10 / AUC0–t / AUC48–96 / Cmax: mean ± S.E.
Protocol: In the pharmacokinetic interaction study, the rats were randomly divided into three groups (n = 7 in each group). The first group of rats was orally administered (±) warfarin (0.2 mg/kg) alone. The second and third groups of rats were administered CJ (5 g/kg) at 0.5 h prior to (±) warfarin and at 10 h after (±) warfarin dosing, respectively. The study was performed in a parallel design. Blood samples were drawn at 0.5, 1.0, 2.0, 6.0, 10, 24, 48, 72, and 96 h after (±) warfarin dosing and collected in a Vacutainer K2 EDTA tube (BD, New Jersey, USA). The blood samples were centrifuged to obtain plasma.
Briefly, 100 µL of plasma was mixed with 50 µL of 0.5N formic acid and then partitioned with 150 µL of ethyl acetate containing 10 µg/mL of caffeic acid as an internal standard.
The pharmacokinetic parameters were calculated by Phoenix WinNonlin® version 8.1 (Pharsight Corporation, St. Louis, MO, USA). The unpaired Student’s t-test and one-way ANOVA were used for statistical comparisons, taking p < 0.05 as significant.

[3] = oral (±) warfarin 0.2 mg/kg + CJ 5.0 g/kg 0.5 h before warfarin
[4] = oral (±) warfarin 0.2 mg/kg + CJ 5.0 g/kg 10 h after warfarin
[5] = oral (±) warfarin 0.2 mg/kg alone

| Compound | Change of AUC0–10 vs warfarin alone [2] | Change of AUC0–t vs warfarin alone [2] | Change of Cmax vs warfarin alone [2] | Effect of CJ on AUC0–t [2] | Effect of CJ on Cmax [2] | Decrease of AUC0-t [2] [%] | Decrease of AUC0–10 [2] [%] | Decrease of Cmax [2] [%] | AUC0–10 [2, 3] | AUC0–t [2, 3] | AUC48–96 [2, 3] | Cmax [2, 3] | AUC0–10 [2, 4] | AUC0–t [2, 4] | Cmax [2, 4] | AUC0–10 [2, 5] | AUC0–t [2, 5] | AUC48–96 [2, 5] | Cmax [2, 5] | also measured |
| --- | --- | --- | --- | --- | --- | --- | --- | --- | --- | --- | --- | --- | --- | --- | --- | --- | --- | --- | --- | --- |
| CC(=O)CC(c1ccccc1)c1c(O)c2ccccc2oc1=O (racemic) [(±) warfarin, (±) Warfarin sodium] |  |  |  |  |  |  |  |  |  |  |  |  |  |  |  |  |  |  |  | INR value at 24 h ([1]; control rats, oral (±) warfarin 0.2 mg/kg alone): 1.4 ± 0.1; INR value at 24 h compared with control rats ([1]; rats, CJ given 0.5 h prior to warfarin): not different from the control rats; Increase of INR value at 24 h vs control rats ([1]; rats, CJ given 10 h after warfarin): 93%; INR value at 24 h ([1]; rats, oral (±) warfarin 0.2 mg/kg + CJ 5 g/kg given 0.5 h prior to warfarin): 1.6 ± 0.1; INR value at 24 h ([1]; rats, oral (±) warfarin 0.2 mg/kg + CJ 5 g/kg given 10 h later): 2.7 ± 0.5 |
| Nc1ccc(S(=O)(=O)Nc2ccnn2-c2ccccc2)cc1 [SFZ, sulfaphenazole] |  |  |  |  |  |  |  |  |  |  |  |  |  |  |  |  |  |  |  | Decrease of CYP2C9 activity (CYP2C9): 19% |
| CC(=O)C[C@@H](c1ccccc1)c1c(O)c2ccccc2oc1=O [S-warfarin] | (−52%) | (−34%) | (−48%) | not affected | not affected | 34 | 52 | 48 | 1561.8 ± 217.3 ^b h⋅ng/mL | 6286.7 ± 456.3 ^b h⋅ng/mL | 1041.3 ± 296.5 ^a h⋅ng/mL | 216.3 ± 18.1 ^b ng/mL | 3846.6 ± 260.8 ^a h⋅ng/mL | 11,555.0 ± 613.6 ^a h⋅ng/mL | 542.0 ± 59.4 ^a ng/mL | 3267.7 ± 423.2 ^a h⋅ng/mL | 9459.1 ± 1659.6 ^a h⋅ng/mL | 1126.6 ± 434.5 ^a h⋅ng/mL | 418.2 ± 69.4 ^a ng/mL | AUC48–96 [2, 4]: 2547.9 ± 339.5 ^b h⋅ng/mL |
| CC(=O)C[C@H](c1ccccc1)c1c(O)c2ccccc2oc1=O [R-warfarin] | (−54%) | (−52%) | (−51%) | not affected | not affected | 52 | 54 | 51 | 1310.8 ± 169.6 ^b h⋅ng/mL | 3007.6 ± 230.0 ^b h⋅ng/mL | 90.4 ± 58.2 h⋅ng/mL | 168.6 ± 17.2 ^b ng/mL | 2943.7 ± 185.7 ^a h⋅ng/mL | 4739.3 ± 255.0 ^ab h⋅ng/mL | 402.8 ± 33.6 ^a ng/mL | 2848.9 ± 395.0 ^a h⋅ng/mL | 6209.2 ± 1253.4 ^a h⋅ng/mL | 222.0 ± 125.3 h⋅ng/mL | 341.1 ± 56.6 ^a ng/mL |  |
